Laboratory results reported in publication PMC7146544, “Dual Plasmepsin-Targeting Antimalarial Agents Disrupt Multiple Stages of the Malaria Parasite Life Cycle” (Cell Host & Microbe, 2020).
Values joined by “and” are separate entries in the source; they are usually repeats but may differ in a detail not shown here. Identical values can stand only once. Like-named read-outs stand apart in the source and are kept apart here.

Legend:
[1] = system: WM5 and 4 resistant P. falciparum; assay: microbe, parasite or virus in culture; type: cell-based, Plasmodium falciparum
Procedure: After 72 h incubation at 37°C each well was fixed at room temperature for 30 min with 50 μL of 0.25% glutaraldehyde (ProSciTech) diluted in PBS. Following centrifugation at 1200 rpm for 1 min, supernatants were discarded and parasites were stained with 50 μL of 5X SYBR Green (Invitrogen) diluted in PBS. 50,000 cells were counted by flow cytometry using a Cell Lab Quanta SC – MPL Flow Cytometer (Beckman Coulter) ([Bacon et al., 2007]). Growth was expressed as a percentage of the parasitemia obtained using a vehicle control. All samples were tested in triplicate. EC50 values were determined using GraphPad Prism.
The parent and resistant lines were then cloned by limiting dilution, the EC50 for each line was determined and genomic DNA was purified from clonal parasites (QIAGEN Blood and Tissue Kit).

[2] = biological target: T1, P. falciparum aspartic protease, PMV (Plasmodium falciparum, UniProt Q8I6Z5); assay: Peptide cleavage (FRET) assay, PMV; type: biochemical; conditions: calculated from IC50 with Cheng-Prusoff equation
T1 construct: made in house

HepG2 cells = assay: EC50 for HepG2 cells; type: cell-based; conditions: Homo sapiens
PMX = biological target: T2, PMX (Plasmodium falciparum, UniProt Q8IAS0); type: binding, P. falciparum; conditions: CETSA
T2 construct: endogenous in cells
Procedure: Lysate CETSA experiments were conducted essentially as described ([Dziekan et al., 2019]). Samples for CETSA studies were prepared using highly synchronous schizont stage P. falciparum 3D7-PMIX_HA and 3D7-PMX_HA parasites. […] After 2–4 h incubation, mature schizonts were washed once with PBS and pelleted infected red blood cells were lysed in 20 volumes of 0.15% (w/v) saponin in PBS and incubated on ice for 20 min. Parasites were washed 3 times in ice-cold PBS and the final pellet was resuspended in 10 volumes of lysis buffer (0.4% NP-40 (Roche) / PBS) and lysed by three freezing (dry ice/ethanol bath) - thawing cycles. The lysates were cleared by centrifugation at 16,000 g for 30 min and the supernatant containing soluble parasite proteins kept at −80°C until use. […] The proteins were electrophoretically transferred to nitrocellulose membrane using a dry-blotting system (iBlot, Thermo Fisher Scientific). After blocking the membrane in 5% non-fat milk in TBST (M-TBST), PMIX_HA and PMX_HA were detected with anti-HA mAb 12CA5 (produced in-house) followed by HRP-conjugated a-mouse IgG Abs (Merck). Blots were developed with ECL Western Blotting Substrate (Thermo Fisher Scientific), and the images were generated and analyzed using ChemiDoc Gel Imaging System and Image Lab Software (Bio-Rad).

P. falciparum 3D7-PMX-HA = assay: EC50 in knock down parasite line 3D7-PMX-HA; type: cell-based, Plasmodium falciparum; conditions: presence vs absence of 2.5 mM GlcN
[3] = system: P. falciparum 3D7-PMIX-HA; assay: EC50 in knock down parasite line 3D7-PMIX-HA; type: cell-based, Plasmodium falciparum; conditions: presence vs absence of 2.5 mM GlcN
P. berghei = assay: Peters' 4-day suppressive test for P. berghei infection in mice; type: in vivo, Plasmodium berghei; conditions: 4 days
Procedure: For results shown in Figure 1 A male Swiss mice were infected intraperitoneally (IP) with 1 × 10^6 P. berghei ANKA-parasitised red blood cells withdrawn from a previously infected donor mouse. Test compounds were prepared in a vehicle consisting of 10% DMSO/90% Solutol (5% Solutol® HS-15 in 0.9% saline). […] Peripheral blood samples were taken 24 h after administration of the last dose, and parasitemia was measured by microscopic analysis of Giemsa-stained blood smears. Parasitemia values were averages for 6 mice per group and are expressed as percent parasitemia. For results shown in Figure 4A ‘donor’ female Swiss mice were infected intraperitoneally (IP) with blood stage P. berghei parasites constitutively expressing GFP (P. berghei ANKA GFPcon 259cl2 ([Franke-Fayard et al., 2004]). Three days later, groups of 4 ‘acceptor’ Swiss mice were infected intravenously (IV) with 1 × 10^7 parasitised erythrocytes from the ‘donor’ mice. Two h post infection, experimental mice (4 per cohort) were left untreated (control mice) or treated orally on 4 consecutive days with test drugs formulated in 20% DMSO/60% PG/20% water (v/v/v) or chloroquine dissolved in water. […] Peripheral blood samples were taken 12 h after the last treatment, and parasitemia measured by flow cytometry (proportion of GFP-positive cells in 100,000 recorded events using FACSCalibur, BD) and microscopic analysis of Giemsa-stained blood smears. Parasitemia values were averages for 4 mice per group and are expressed as percent parasitemia.

[4] = system: P. falciparum gametocytes; assay: Standard membrane feeding assay (SMFA), transmission to mosquitoes; type: cell-based, Plasmodium falciparum; conditions: gametocytes treated day 13 to day 17; oocysts counted day 7 after feeding
Procedure: NF54 P. falciparum cultures were synchronized and maintained as described earlier at 5%–10% parasitemia at 4% hematocrit. Once parasitemia reached 8%–10% rings, parasites were diluted to 0.65% parasitemia in desired volume for the gametocyte cultures (10 mL for Petri dish or 6 × 5 mL for 6-well plate). Gametocyte cultures were supplied with gametocyte media consisted of O+ erythrocyte at 4% hematocrit in Roswell Park Memorial Institute (RPMI) 1640 medium supplemented with 26 mM 4-(2-hydroxyethyl)piperazine-1-ethanesulfonic acid (HEPES), 50 μg/mL hypoxanthine, 2.9% NaHCO3, and 10% heat-inactivated human serum. Sexual stage gametocytes were induced by allowing continuous growth cultures without the addition of fresh human erythrocytes ([Vaughan et al., 2012]). […] Stage V gametocytemia was determined by light microscopy examination of methanol fixed, Giemsa stained thin smear under 1,000 magnification. […]
On day 7 after feeding with gametocyte bloodmeal, infected mosquitoes were aspirated into a cup and anesthetized by incubating them at −20°C for 5 min until immobilized. […] Collected midguts were maintained in 1X phosphate buffered saline (PBS, GIBCO) until stained with mercurochrome for 20 min then placed on a glass slide and counted for oocysts by microscopy.

[5] = biological target: recombinant PMX protein (rPMX) (Plasmodium falciparum, UniProt Q8IAS0); type: biochemical, P. falciparum; design: full-length enzyme with prodomain and catalytic domain (pro-cat); 8xHis (C); made in house; host or cells: Spodoptera frugiperda (sf21) insect cells, baculovirus, secreted; compound added to the expression culture; conditions: insect cell expression
[6] = Plasmodium falciparum, 3D7, read-out: EC50, 3D7-WM4.1, WM4-resistant line 3D7-WM4.1
[7] = Plasmodium falciparum, 3D7, read-out: EC50, 3D7-WM5.1, WM5-resistant line 3D7-WM5.1

T1 sequence (Q8I6Z5 whole entry): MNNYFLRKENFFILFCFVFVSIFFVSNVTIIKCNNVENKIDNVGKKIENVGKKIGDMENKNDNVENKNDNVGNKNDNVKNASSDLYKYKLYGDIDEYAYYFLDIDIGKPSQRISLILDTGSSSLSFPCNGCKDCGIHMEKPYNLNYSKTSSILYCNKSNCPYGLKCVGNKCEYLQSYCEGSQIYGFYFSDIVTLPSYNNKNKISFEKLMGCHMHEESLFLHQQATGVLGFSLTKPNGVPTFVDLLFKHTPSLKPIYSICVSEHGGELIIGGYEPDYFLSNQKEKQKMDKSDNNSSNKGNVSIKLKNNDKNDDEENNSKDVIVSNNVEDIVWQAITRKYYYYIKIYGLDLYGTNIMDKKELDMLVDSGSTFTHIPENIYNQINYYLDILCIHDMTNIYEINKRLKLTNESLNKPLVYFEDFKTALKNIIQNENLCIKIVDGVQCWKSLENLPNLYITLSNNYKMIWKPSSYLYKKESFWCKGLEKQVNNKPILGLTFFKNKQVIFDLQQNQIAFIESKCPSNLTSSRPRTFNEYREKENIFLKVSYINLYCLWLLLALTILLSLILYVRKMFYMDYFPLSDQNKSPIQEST
T2 sequence (Q8IAS0 222-573): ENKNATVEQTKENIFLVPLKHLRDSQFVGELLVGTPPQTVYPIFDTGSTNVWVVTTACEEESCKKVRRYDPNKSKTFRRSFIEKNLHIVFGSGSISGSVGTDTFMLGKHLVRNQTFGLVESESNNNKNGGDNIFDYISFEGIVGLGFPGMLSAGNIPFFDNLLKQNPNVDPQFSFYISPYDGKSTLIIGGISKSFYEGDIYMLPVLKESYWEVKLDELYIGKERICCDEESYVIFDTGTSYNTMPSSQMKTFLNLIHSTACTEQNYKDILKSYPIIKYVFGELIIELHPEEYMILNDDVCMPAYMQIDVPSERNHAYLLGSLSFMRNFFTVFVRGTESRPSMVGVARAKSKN
Chain of recombinant PMX protein (rPMX) (Q8IAS0 27-573): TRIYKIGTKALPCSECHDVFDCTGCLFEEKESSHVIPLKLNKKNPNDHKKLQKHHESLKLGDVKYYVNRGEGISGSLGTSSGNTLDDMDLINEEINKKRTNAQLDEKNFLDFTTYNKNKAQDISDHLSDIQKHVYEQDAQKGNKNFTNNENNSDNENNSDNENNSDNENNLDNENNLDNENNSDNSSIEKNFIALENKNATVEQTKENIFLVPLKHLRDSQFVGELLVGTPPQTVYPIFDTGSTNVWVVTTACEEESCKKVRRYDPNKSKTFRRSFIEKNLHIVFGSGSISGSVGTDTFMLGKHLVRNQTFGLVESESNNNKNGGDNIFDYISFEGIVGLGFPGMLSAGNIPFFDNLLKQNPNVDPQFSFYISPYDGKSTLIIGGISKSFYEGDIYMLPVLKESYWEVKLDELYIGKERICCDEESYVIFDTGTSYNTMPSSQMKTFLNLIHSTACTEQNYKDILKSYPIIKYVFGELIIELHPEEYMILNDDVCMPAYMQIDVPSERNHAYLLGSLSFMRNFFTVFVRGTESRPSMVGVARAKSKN

SMILES | EC50 [1, 6] [nM] | EC50 ([1]; Plasmodium falciparum, 3D7, read-out: EC50, 3D7-WM4.2, WM4-resistant line 3D7-WM4.2, Figure S1) [nM] | EC50 [1, 7] [nM] | EC50 ([1]; Plasmodium falciparum, 3D7, read-out: EC50, 3D7-WM5.2, WM5-resistant line 3D7-WM5.2, Figure S1) [nM] | EC50 ([1]; Plasmodium falciparum, 3D7, read-out: EC50, 3D7-WM5.3, WM5-resistant line 3D7-WM5.3, Figure S1) [nM] | EC50 ([1]; read-out: EC50, 3D7-WM4.1, WM4-resistant line 3D7-WM4.1) | EC50 ([1]; read-out: EC50, 3D7-WM5.1, WM5-resistant line 3D7-WM5.1) [nM] | Ki [2] [nM] | EC50 (HepG2 cells) [nM] | effect on thermal stability of PMX (PMX) | change of EC50 when PMX expression was decreased (P. falciparum 3D7-PMX-HA) | change of EC50 when PMIX expression was decreased [3] | in vivo activity against P. berghei infection (P. berghei; intraperitoneal, 20 mpk q.d., Swiss mice) | oocyst numbers in mosquitoes fed treated gametocytes [4] | cleavage of rPMX into catalytic and pro-domain [5] | in vivo efficacy against P. berghei (P. berghei; oral, 20 mg/kg (mpk) b.i.d.)
CC(NC(=O)c1cccc(C(c2ccccc2)N2C(=N)NC(C)(C(C)C)CC2=O)c1)c1ccccc1 (racemic) [WM4] | 113 ± 2.3 | 140 ± 52.7 | 93.2 ± 2.04 | 142 ± 5.5 | 135 ± 3.8 | 93 nM and 65.9 nM | 115 ± 18.8 | 19800 ± 500 | 14200 ± 2300 | stabilized PMX | significantly decreased | no significant change | partial efficacy | no significant reduction in oocyst numbers | cleavage was inhibited | –
CCC1(CC)CC(=O)N([C@@H]2CCOc3ccc(C(=O)N[C@H]4CC(C)(C)Oc5ccccc54)cc32)C(=N)N1 [WM382] | 1.88 ± 0.03 | – | 2.04 ± 0.05 | – | – | – | – | 13400 ± 620 | 24800 ± 2200 | significantly more thermostable | significantly decreased | significantly more sensitive | – | potently inhibited oocyst development | cleavage was inhibited | significantly greater in vivo efficacy than WM4 and WM5
